Source: patent US7034020B2, “Derivatives of butyric acid and uses thereof” (The University of Arkansas for Medical Science, priority 1999, dated 2006)

Tests used:
[1] = tested on: KLH-specific Th1 cells (clone D3); experiment: IL-2-induced proliferation of Th1 cells in the presence of butyrate derivatives; format: cell-based, C57BL/10 mice
Method: KLH-specific Th1 cells (clone D3) are stimulated with IL-2 (10% Con A CM) in the presence of different concentrations of n-butyrate or butyrate derivatives. In FIG. 2A Th1 cell proliferation is measured after 2 days. In FIG. 2B, the inhibitors are washed out after 24 hours, and the Th1 cells reincubated with fresh IL-2-containing medium. Proliferation of the Th1 cells restimulated with IL-2 in the absence of the inhibitors is measured after an additional 2 days. This experiment was repeated three times, and the proliferation data represents the means of the […] experiments.
The KLH-specific were developed in C57BL/10 mice, and characterized as Th1 clones based on their ability to secrete IL-2, but not IL-4. The Th1 clones were passed every 7–14 days using KLH, irradiated syngeneic spleen cells as antigen-presenting cells (APC), and IL-2-containing Con A CM using a previously described protocol (Gilbert et al., 1990).
To test the ability of the butyrate derivatives to suppress T cell activity […], Th1 cells [(5×10^4 cells/well in 96 well plates (Costar)] are stimulated with 10% IL-2-containing Con A CM in the presence of various concentrations of different butyrate derivatives. In some cultures, Th1 cell proliferation is measured after two days. In other cultures, the Th1 cells are washed after 24 hours, and fresh IL-2-containing medium is added. Proliferation is measured in the washed, IL-2-restimulated cultures after an additional 2 days.

lymph node CD4+ T cells = experiment: Ovalbumin-stimulated proliferation of lymph node CD4+ T cells from treated mice; format: in vivo, C57BL/10 mice; conditions: MEB 0.15 mmol ip on day 2 or day 3; cells restimulated with ovalbumin in vitro
Method: C57BL/10 mice are injected ip with ovalbumin/CFA on day 0, followed by a single ip injection of saline or MEB (0.15 mmol) on Days 2 or 3. The mice are reimmunized with ovalbumin sc on Day 10. Isotype-specific anti-ovalbumin antibody generated during the primary immune response (FIG. 4A), and the secondary immune response (FIG. 4B) are measured in the serum at day 10 and day 16, respectively. (FIG. 4C). […] This experiment was repeated, and the proliferation data represents the means of the two experiments.
If the butyrate derivatives suppressed antibody production to a thymus-dependent antigen by inactivating the antigen-specific CD4^+ T cells required for B cell help, then the butyrate derivatives need only be present during an early stage during which the CD4^+ T cells would otherwise be activated by antigen. […] On day 10 the mice receive 100 μg ovalbumin in conjunction with incomplete Freund's adjuvant sc at the base of the tail. After an additional 7 days, cells from the periaortic and mesenteric lymph nodes were enriched for CD4^+ T cells by negative selection (Griffin et al., 1998). […] Proliferation is measured on day 4 by assessing incorporation of [^3H]-TdR after a 12 hour pulse.

[2] = tested on: total anti-ovalbumin antibody in the serum; experiment: Primary anti-ovalbumin antibody production in vivo (ELISA), derivatives on Days 1–3; design: species or system C57BL/10 mice; conditions: 0.091 mmol ip Days 1–3; serum day 10
Method: C57BL/10 mice are injected ip on Day 0 with ovalbumin followed by ip injections of saline, or one of three different butyrate derivatives on Days 1–3.
The butyrate derivatives are tested for their ability to suppress lymphocyte activity in vivo. C57BL/10 mice (5 mice/group) are injected ip with 100 μg of ovalbumin in conjunction with complete Freund's adjuvant on Day 0. In one experiment, the mice also receive one ip injection per day of the butyrate derivatives (0.091 mmol) on Days 1–3. Serum samples are obtained 10 days after the initial injection with ovalbumin, and tested for the presence of anti-ovalbumin antibodies using an ELISA. To perform the ELISA 96 well plates (Costar 3595) are first incubated with ovalbumin (100 μl/well of 100 μg/ml in PBS) overnight at 4° C. The plates are then washed 4 times with PBS and 0.5% Tween 20, blocked with 1% fetal calf serum for 30 minutes at 37° C., and washed again. Individual serum samples are added (diluted 1/100 or 1/1000 in PBS), and the plates are incubated for 2 hours at 20° C. The plates were next washed 7 times with PBS/Tween, and alkaline phosphate (AP)-labeled goat anti-mouse IgG, IgA, IgM (H+L) (Zymed) is added ( 1/1000) for 1 hour at 20° C. The plates are again washed 7 times with PBS/Tween, alkaline phosphate substrate (1 mg/ml) is added. After 10 minutes, Ig levels are quantified by an ELISA reader (absorbance 405 nm). The concentration of anti-ovalbumin is determined by comparison with a standard curve obtained using mouse anti-ovalbumin antibody (Sigma; St. Louis, Mo.). To measure isotype-specific anti-ovalbumin antibodies, serum samples (diluted at 1/300 or 1/1000) are incubated on the ovalbumin-coated plates as described above. […] Ig levels are presented as OD measurements.

[3] = tested on: spleen cells from DBA/2 mice; experiment: Mixed lymphocyte response (MLR), alloantigen-specific T cell unresponsiveness; format: cell-based
Method: (FIG. 6A) Spleen cells from DBA/2 mice (H-2^d) were stimulated in a primary mixed lymphocyte response (MLR) with irradiated spleen cells or from C57BL/10 mice (H-2^b) in the presence (∘) or absence (●) of MEB (1 mM). As a negative control some wells are stimulated with spleen cells from DBA/2 mice (▾). Proliferation is measured on day 5. (FIG. 6B) After 3 days, some wells in the primary MLR cultures are washed, and rested for a further 2 days. The spleen cells that were stimulated in the primary MLR with spleen cells from C57BL/10 mice in the presence (∘) or absence (●) of MEB are then isolated and reincubated with either the original alloantigen (spleen cells from C57BL/10 mice), with a third-party alloantigen [spleen cells from C3H/HeJ mice (H-2k)], or with IL-2 (Con A CM).
The ability of MEB to induce alloantigen-specific T cell unresponsiveness is shown by incubating spleen cells from DBA/2 mice (H-2^d) (2.5×10^5 in 200 μl /wells) with stimulator cells [2.5×10^5 irradiated (2000R) spleen cells from C57BL/10 mice (H-2^b)]. MEB (1 mM) is added to some wells of the mixed lymphocyte reaction (MLR) 24 hours after the initiation of culture. After an additional 3 days, the MLR cultures are washed, and rested for a further 2 days. The T cells from the MLR are then isolated and reincubated at 2.5×10^5/well with either the initial alloantigen (spleen cells from C57BL/10 mice), or with a third-party alloantigen [spleen cells from C3H/HeJ mice (H-2^k)]. Proliferation in both the primary and secondary MLR is measured on day 5 by assessing incorporation of [^3H]-TdR after a 12 hour pulse.

Structure (SMILES): CCCC(=O)OCCN1CCOCC1.Cl [MEB, 2-(4-Morpholinyl)ethyl butyrate hydrochloride]
- Suppression of IL-2-induced proliferation of Th1 cells ([1]; 10% Con A CM, various concentrations, proliferation after 2 days): comparable to n-butyrate
- Proliferation to IL-2 after compounds are washed out ([1]; washed after 24 hours, fresh IL-2 medium, additional 2 days): regained their ability to proliferate to IL-2
- Antigen-specific proliferation of CD4+ T cells from antigen-primed mice (lymph node CD4+ T cells): significant loss of antigen-specific proliferation
- Decrease of primary anti-ovalbumin antibody response versus saline [2]: 65%
- Proliferation in secondary MLR, third-party alloantigen ([3]; MEB 1 mM in primary MLR, restimulated with C3H/HeJ spleen cells): able to proliferate
- Proliferation in secondary MLR, initial alloantigen ([3]; MEB 1 mM in primary MLR, restimulated with C57BL/10 spleen cells without MEB): lose their ability to proliferate
- Proliferation in secondary culture, exogenous IL-2 ([3]; MEB 1 mM in primary MLR, restimulated with IL-2): able to proliferate
- Spleen cell proliferation in primary one-way MLR ([3]; MEB 1 mM, day 5): blocked spleen cell proliferation
